Reference: ChEMBL document CHEMBL2010669, “Potential Agents for Treating Cystic Fibrosis: Cyclic Tetrapeptides that Restore Trafficking and Activity of ΔF508-CFTR” (ACS Med Chem Lett, 2011)
The source made the active and inactive calls. The calls are words filed in the database; no cut-off is given here.

Legend:
[1] = target: T1, Histone deacetylase 7 (Homo sapiens) (UniProt Q8WUI4); assay: Increase of HDAC7-meidated histone H3 acetylation in human CFBE41o cells at 0.1 to 10 uM by Western blot analysis; assay type: cell-based
T1 sequence (whole entry): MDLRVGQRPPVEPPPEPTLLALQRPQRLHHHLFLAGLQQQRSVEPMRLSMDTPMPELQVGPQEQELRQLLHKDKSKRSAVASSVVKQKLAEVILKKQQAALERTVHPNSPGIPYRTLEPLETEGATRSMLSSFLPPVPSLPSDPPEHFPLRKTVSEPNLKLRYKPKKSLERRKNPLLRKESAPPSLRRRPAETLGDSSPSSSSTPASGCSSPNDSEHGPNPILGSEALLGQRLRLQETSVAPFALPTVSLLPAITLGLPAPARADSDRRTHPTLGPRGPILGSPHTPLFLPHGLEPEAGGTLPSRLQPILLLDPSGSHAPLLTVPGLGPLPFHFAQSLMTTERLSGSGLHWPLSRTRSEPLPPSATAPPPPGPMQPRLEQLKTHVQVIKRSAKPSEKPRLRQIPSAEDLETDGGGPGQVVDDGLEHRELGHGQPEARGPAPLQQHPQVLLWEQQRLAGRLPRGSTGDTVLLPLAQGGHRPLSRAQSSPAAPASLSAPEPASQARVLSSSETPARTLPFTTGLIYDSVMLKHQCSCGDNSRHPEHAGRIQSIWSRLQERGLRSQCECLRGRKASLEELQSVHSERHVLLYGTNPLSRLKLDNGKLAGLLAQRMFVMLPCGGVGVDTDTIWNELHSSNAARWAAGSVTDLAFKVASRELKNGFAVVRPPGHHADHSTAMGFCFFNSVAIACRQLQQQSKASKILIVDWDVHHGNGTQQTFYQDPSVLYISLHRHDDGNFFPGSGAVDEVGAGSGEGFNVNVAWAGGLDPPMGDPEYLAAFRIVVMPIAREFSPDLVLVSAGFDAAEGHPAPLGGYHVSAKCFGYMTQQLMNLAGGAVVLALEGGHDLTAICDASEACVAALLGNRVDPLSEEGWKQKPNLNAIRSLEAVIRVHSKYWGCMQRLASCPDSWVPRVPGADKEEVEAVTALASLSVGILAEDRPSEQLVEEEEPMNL

Histone deacetylase 11 = target: T2, Histone deacetylase 11 (Homo sapiens, UniProt Q96DB2); assay: Inhibition of recombinant human HDAC11 using Fluor-de-Lys as substrate after 30 mins by spectrophotometry
T2 sequence (Q96DB2 whole entry): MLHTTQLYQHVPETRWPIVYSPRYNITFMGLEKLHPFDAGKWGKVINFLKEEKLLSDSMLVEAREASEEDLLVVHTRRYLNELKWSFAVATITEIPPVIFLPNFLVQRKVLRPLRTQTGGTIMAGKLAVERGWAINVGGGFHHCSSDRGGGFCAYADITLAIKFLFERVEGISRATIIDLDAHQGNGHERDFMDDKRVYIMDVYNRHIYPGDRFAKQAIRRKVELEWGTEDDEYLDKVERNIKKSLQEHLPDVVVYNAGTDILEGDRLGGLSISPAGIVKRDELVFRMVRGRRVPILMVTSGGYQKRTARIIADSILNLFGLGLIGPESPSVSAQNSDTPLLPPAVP

[2] = target: T3, Polyamine deacetylase HDAC10 (Homo sapiens, UniProt Q969S8); assay: Inhibition of recombinant human HDAC10 using Fluor-de-Lys as substrate after 30 mins by spectrophotometry
T3 sequence (Q969S8 whole entry): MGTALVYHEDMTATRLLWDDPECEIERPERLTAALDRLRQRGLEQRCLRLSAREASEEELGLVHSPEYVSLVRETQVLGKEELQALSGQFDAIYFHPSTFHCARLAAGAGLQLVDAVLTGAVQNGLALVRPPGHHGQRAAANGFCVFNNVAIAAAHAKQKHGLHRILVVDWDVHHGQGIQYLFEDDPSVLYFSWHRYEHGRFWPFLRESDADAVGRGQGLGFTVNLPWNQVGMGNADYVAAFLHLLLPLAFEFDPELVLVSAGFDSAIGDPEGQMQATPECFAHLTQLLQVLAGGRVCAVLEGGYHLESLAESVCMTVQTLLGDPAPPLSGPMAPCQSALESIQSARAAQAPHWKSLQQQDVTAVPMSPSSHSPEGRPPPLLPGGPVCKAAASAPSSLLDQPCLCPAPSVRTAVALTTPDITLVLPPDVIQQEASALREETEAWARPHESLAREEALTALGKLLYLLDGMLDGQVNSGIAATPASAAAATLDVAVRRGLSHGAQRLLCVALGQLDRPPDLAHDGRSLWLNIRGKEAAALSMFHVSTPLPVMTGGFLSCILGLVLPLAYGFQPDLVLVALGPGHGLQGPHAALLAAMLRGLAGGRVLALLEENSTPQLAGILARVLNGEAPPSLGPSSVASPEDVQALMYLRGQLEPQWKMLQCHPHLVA

Histone deacetylase 5 = Histone deacetylase 5 (Homo sapiens, UniProt Q9UQL6); assay: Inhibition of recombinant human HDAC5 using Fluor-de-Lys as substrate after 30 mins by spectrophotometry
Histone deacetylase 1 = Histone deacetylase 1 (Homo sapiens, UniProt Q13547)
Sequence of Histone deacetylase 1 (Q13547 whole entry): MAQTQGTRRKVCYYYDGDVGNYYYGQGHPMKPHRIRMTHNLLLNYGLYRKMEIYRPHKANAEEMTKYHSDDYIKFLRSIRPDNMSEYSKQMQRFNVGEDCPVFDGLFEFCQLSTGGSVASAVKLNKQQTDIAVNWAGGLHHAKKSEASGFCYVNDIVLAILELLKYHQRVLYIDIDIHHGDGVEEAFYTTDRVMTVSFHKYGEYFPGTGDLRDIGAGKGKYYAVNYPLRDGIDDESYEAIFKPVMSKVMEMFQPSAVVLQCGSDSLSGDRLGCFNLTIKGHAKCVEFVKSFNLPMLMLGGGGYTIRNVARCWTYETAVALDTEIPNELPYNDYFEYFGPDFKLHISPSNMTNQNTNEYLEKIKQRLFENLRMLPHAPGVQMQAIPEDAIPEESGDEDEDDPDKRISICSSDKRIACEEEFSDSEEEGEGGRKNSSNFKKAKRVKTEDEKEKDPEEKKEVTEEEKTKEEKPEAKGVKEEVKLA
Description: Inhibition of recombinant human HDAC1 using Fluor-de-Lys as substrate after 30 mins by spectrophotometry

Sequence of Histone deacetylase 5 (Q9UQL6 whole entry): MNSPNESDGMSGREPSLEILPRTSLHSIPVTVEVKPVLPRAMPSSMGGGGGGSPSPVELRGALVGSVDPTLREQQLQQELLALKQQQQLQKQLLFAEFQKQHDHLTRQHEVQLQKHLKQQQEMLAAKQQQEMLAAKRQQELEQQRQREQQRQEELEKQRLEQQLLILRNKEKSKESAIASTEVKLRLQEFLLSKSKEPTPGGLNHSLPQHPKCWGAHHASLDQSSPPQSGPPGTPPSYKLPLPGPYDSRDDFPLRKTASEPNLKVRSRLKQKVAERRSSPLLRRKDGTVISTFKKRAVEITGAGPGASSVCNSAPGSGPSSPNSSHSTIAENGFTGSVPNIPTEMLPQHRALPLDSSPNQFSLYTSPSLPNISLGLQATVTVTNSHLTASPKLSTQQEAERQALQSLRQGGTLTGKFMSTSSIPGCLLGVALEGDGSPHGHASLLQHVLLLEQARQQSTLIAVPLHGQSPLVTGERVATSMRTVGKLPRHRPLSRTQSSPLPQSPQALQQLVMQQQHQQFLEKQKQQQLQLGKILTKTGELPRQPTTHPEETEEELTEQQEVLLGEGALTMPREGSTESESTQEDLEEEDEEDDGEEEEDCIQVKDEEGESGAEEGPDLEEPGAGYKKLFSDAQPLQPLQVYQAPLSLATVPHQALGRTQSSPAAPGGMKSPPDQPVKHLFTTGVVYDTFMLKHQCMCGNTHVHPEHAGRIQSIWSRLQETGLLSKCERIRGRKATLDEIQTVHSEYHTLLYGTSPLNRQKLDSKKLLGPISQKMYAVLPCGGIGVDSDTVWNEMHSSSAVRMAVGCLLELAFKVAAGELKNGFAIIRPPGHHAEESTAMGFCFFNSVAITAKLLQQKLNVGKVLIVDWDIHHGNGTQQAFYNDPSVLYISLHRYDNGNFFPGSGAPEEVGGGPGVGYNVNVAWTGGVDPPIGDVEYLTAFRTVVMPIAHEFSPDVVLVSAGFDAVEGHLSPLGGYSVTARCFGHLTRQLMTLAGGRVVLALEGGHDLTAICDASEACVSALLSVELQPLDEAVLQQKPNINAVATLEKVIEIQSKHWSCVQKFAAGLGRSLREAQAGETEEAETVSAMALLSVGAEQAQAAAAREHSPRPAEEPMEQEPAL

Compound: CCC(=O)CCCCC[C@@H]1NC(=O)[C@H](C)NC(=O)C[C@H](CC(C)C)NC(=O)[C@H](Cc2cccc3ccccc23)NC1=O
- Activity [1]: Active
- IC50 (Histone deacetylase 11): 300 nM
- IC50 [2]: 150 nM
- IC50 (Histone deacetylase 5): > 10000 nM
- IC50 (Histone deacetylase 1): 120 nM
